Source: patent US10632174B2, “B7-H1 fusion polypeptides for treating and preventing organ failure” (Fraunhofer-Gesellschaft zur Förderung der angewandten …, priority 2015, dated 2020)

Assays:
[1] = test system: B7-H1 surface expression in Hepa1-6 cells (Nox4 inhibition); assay: B7-H1 surface expression in Hepa1-6 cells by FACS; assay type: cell-based, murine; settings: 10 μM, 24 h, no further treatment, FIG. 8A
Procedure: FIG. 8: Inhibition of Nox4 enhances B7-H1 expression. Hepa1-6 cells were treated with the Nox4-specific inhibitor GKT137831 [10 μM] for 24 h. Afterwards, cells were harvested and B7-H1 expression was determined by FACS analysis. A quantification of five independent experiments is provided in (A). In liver homogenates of global NOX4 knockout mice B7-H1 protein expression was examined by Western blotting (B). A representative blot is shown. A quantification of B7-H1 expression (WT vs. NOX4-KO; n=5/5; *p<0.5) is provided in (C). B7-H1 expression on hepatocytes following polymicrobial sepsis initiation by cecal ligation and puncture (CLP) was studied in liver single cell suspensions by FACS-analysis gating for CD45-, i.e. non-immune cells as described in Materials and Methods. A quantification is shown (D), (sham vs. CLP, WT sham is set as 1; n=5/5/5/5; *p<0.5). Liver damage in global NOX4 knockout mice following CLP operation is assessed by looking at ALT/AST release into the serum, which is determined with a Reflotron Plus […] analyzer (E) (NOX4-KO; sham vs. CLP; n=5/5, *p<0.5). […]
All antibodies and secondary reagents were titrated to optimal concentrations. […] Surface expression of B7-H1 and B7-DC on the surface of primary hepatocytes was determined by FACS analysis, using anti-B7-H-PE or anti-B7-DC-PE. […]

[2] = test system: B7-H1 expression in Hepa1-6 cells; assay: B7-H1 mRNA (qPCR) and protein (Western) expression in Hepa1-6 cells; assay type: cell-based, murine; settings: 100 ng/ml LPS with 10 mM NAC, FIG. 7 vs FIG. 3B
Procedure: FIG. 3: B7-H1 expression in Hepa1-6 cells following LPS or LTA stimulation. Hepa1-6 cells were stimulated for the indicated times with 100 ng/ml LPS or 100 ng/ml LTA. Afterwards cells were harvested and mRNA was isolated or protein lysates were prepared as described in Materials and Methods. mRNA expression of B7-H1 (A) was analyzed by quantitative PCR. 18s rRNA was used as a house keeping gene. (B) B7-H1 protein expression following LPS stimulation was determined by Western analysis. All experiments were performed at least five times. Data represent the mean±SD (*p<0.5) or show a representative blot.
FIG. 7: B7-H1 expression was restored adding the GSH precursor N-acetyl-cysteine (NAC). Hepa1-6 cells were stimulated for the indicated times with 100 ng/ml LPS with 10 mM NAC. Afterwards cells were harvested and protein lysates were prepared as described in Materials and Methods. B7-H1 protein expression was determined by Western analysis. All experiments were performed at least five times. […]
LPS and LTA act via different Toll-like receptors (TLRs) on target cells i.e. TLR2 for LTA and TLR4 for LPS. […] To investigate whether a ROS-dependent mechanism was responsible for the reduction of B7-H1, ROS formation was determined in Hepa 1-6 cells treated with LPS alone or in combination with N-acetylcysteine (NAC). […]
B7-H1, B7-DC, PD-1, Fas and EGFP expression were analyzed by Western analysis. […]

| Structure (SMILES) | increase of B7-H1 surface expression [1] | B7-H1 protein expression [2] |
| --- | --- | --- |
| CN(C)c1cccc(-c2c3c(=O)n(-c4ccccc4Cl)[nH]c3cc(=O)n2C)c1 [GKT137S31] | roughly 50% |  |
| CC(=O)N[C@@H](CS)C(=O)O [NAC, N-acetylcysteine] |  | restored expression of B7-H1 |
